Assay results as given in patent publication US10106523B2, “Amide compound” (ASTELLAS PHARMA INC., priority 2014, dated 2018).

Assays:
[1] = target: rat EP4 receptor (Rattus norvegicus, UniProt P43114); test: Rat EP4 receptor antagonistic action by measurement of cAMP amount in CHO-K1 cells; format: cell-based; set-up: expressed in transfected cells; settings: PGE2 100 nmol/L, CHO-K1 cells stably expressing rat EP4, average of two experiments; read-out: IC50 value with respect to the cAMP production action by PGE2 in rat EP4 receptor expressing CHO-K1 cells
Sequence of rat EP4 receptor (P43114 whole entry): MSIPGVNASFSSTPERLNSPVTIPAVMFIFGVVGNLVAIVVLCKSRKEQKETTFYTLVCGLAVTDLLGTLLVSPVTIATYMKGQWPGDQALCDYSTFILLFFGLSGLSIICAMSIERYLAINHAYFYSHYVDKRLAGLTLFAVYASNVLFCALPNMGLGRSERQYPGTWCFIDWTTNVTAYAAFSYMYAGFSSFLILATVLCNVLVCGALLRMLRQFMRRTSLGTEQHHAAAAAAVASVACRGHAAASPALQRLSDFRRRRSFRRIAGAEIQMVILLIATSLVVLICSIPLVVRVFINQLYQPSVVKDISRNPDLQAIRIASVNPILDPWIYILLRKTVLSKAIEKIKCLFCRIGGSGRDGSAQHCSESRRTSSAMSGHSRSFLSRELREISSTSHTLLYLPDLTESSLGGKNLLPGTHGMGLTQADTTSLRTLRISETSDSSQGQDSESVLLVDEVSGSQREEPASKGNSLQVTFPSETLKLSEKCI
Protocol: Test Example 4: Evaluation Test of Rat EP4 Receptor Antagonistic Action by Measurement of cAMP Amount
Construction of Vector Expressing Rat EP4 Receptor:
The construction was carried out in the same manner as in Test Example 1.
Construction of Cells Stably Expressing Rat EP4 Receptor:
The expression vector of a rat EP4 receptor was transfected into a CHO—K1 cell (ATCC No.: CCL-61). The transfection was carried out according to an appended instruction, using Lipofectoamine (registered trademark) 2000 reagent (Invitrogen Inc.). After the transfection, the cells were cultured in an α-MEM culture medium (product No. 12571063, Invitrogen Inc.) containing G418 (Nakalai Tesque Inc.) to acquire a drug-resistant clone.
Cell Culture and Treatment with Compound:
CHO—K1 cells stably expressing a rat EP4 were seeded in 96-well plates at 0.5×10^4 cells/100 μL and cultured overnight. […]
The cAMP amount in the cell lysate was measured using a cAMP HiRange kit. […] After incubation, the fluorescence intensity of the cryptate at 620 nm and the fluorescence intensity of the d2 at 665 nm were measured using ARVO1420. The cAMPs of 280, 70, 17.5, 4.38, 1.09, 0.27, and 0.068 nmol/L were added to each well to create a standard curve and the fluorescence intensity was measured as described above. […] An average value was calculated from two experiment results.

[2] = tested on: SD rats; test: Evaluation on rat gastrointestinal disorder (7-day oral administration, hematology, blood chemistry, histopathology); format: in vivo; settings: 3 mg/kg po for 7 days
Protocol: Test Example 10: Evaluation on Rat Gastrointestinal Disorder
SD rats (male, 7-week old) were used. A test compound dissolved in a mixed solution of PEG 400: 20% Tween 80: 1 mol/L aqueous NaHCO3 solution=1:4:5 was orally administered at a dose of 3 mg/kg (n=5, 5 mL/kg) for 7 days. The aforementioned mixed liquid was orally administered to a group not treated with the test drug (n=5) at a volume of 5 mL/kg for 7 days. Blood was collected under fasting overnight for hematology and blood chemistry tests on the following day after the final administration. After blood collection, the animal which had been euthanized by exsanguination was immediately necropsied, and the stomach, duodenum, jejunum, ileum, cecum, colon, rectum, and liver were excised therefrom. The excised organs were fixed in a 10% neutral buffered formalin solution and used for histopathological evaluation.

[3] = tested on: db/db mice with type 2 diabetes; test: Effect on albumin in urine of db/db mice with type 2 diabetes; format: in vivo, mouse; settings: 0.3 mg/kg po once per day for one week
Protocol: Test Example 7: Test for Investigation of Effect on Albumin in Urine of db/db Mice with Type 2 Diabetes
db/db Mice (male, 8-week old) with type 2 diabetes were used for the test. The albumin concentrations in urine samples obtained by urine collection for 24 hours were measured by an ELISA method using an anti-mouse albumin antibody (RAM/Alb/7S, Nordic Immunology), and the creatinine concentration in urine was measured using CRE-EN Kainos (Kainos Co., Ltd.). The albumin-creatinine ratio (ACR) in urine was calculated, and a group (n=12) not treated with the test compound and a group (n=12) treated with the test compound were allocated without a bias in ACR. The test compound suspended in a 0.5% methyl cellulose (MC) solution was orally administered to the group treated with the test compound at a dose of 0.3 mg/kg once per day for one week (10 mL/kg). […] Urine was collected for 24 hours from the completion of the final administration, and using the calculated ACR as an indicator, the improvement effect of the test compound on the early nephropathy of the mice with type 2 diabetes was investigated. The inhibitory rate of ACR of the group treated with the test compound by taking the ACR value of the group not treated with the test compound as 100% was determined.

IC50 [1]: 1.04 nM
Findings indicating abnormality (hematology, blood chemistry, histopathology of gastrointestinal organs and liver) [2]: not observed
Structure (SMILES): Cc1nn(Cc2cc3ccccc3cn2)c(C(=O)N[C@@H](C)c2ccc(C(=O)O)cc2)c1Br [Compound A, 4-[(1S)-1-({[4-bromo-1-(isoquinolin-3-ylmethyl)-3-methyl-1H-pyrazol-5-yl]carbonyl}amino)ethyl]benzoic acid]
Inhibitory rate of ACR (albumin-creatinine ratio in urine) [3]: 44%
